Experimental data taken from ChEMBL document CHEMBL5729653, “Substituted pyridotriazine compounds and uses thereof” (2023).

Test: HIV MT-4 Serum Shift Antiviral Reporter Assay: To quantify the amount of protein binding to human serum, compounds were serially diluted (1:3) in DMSO and acoustically transferred onto 384-well assay plates via a Labcyte ECHO robot. Each plate contained up to 8 test compounds, including negative and positive controls, (DMSO, 5 μM AZT respectively). Assay plates were prepared in duplicate, and tested in either CCM (cell culture media) or HS/CCM (human serum/cell culture media). MT-4 cells were first pre-infected with pLai RLuc reporter virus for 2 h at 37° C., then further diluted in either CCM (RPMI media, 10% FBS, 1% P/S) or HS/CCM (RPMI media, 10% FBS, 50% HS, 1% P/S), and subsequently added to each plate using a Biotek Micro Flow dispenser. After a 72-h incubation in a humidified and temperature controlled incubator (37° C.), Renilla Glo (Promega) was added to all assay plates and chemiluminescence read using an Envision plate-reader. EC50 values were defined as the compound concentration that causes a 50% decrease in luminescence signal, and were calculated using a sigmoidal dose-response model to generate curve fits. To determine the amount of protein binding, EC50 fold shifts (or EC50 shifts) were calculated by dividing EC50 (HS/CCM)/EC50 (CCM).

Structure (SMILES)	EC50 [nM]	EC50 (MT4, 2 h) [nM]
C[C@@H]1C=C[C@H](CF)N2CN1n1cc(C(=O)NCc3ccc(F)cc3F)c(=O)c(O)c1C2=O	1.9	–
C[C@H]1C=C[C@H](C)N2CN1C(=O)c1c(O)c(=O)c(C(=O)NCc3c(F)cc(F)cc3F)cn12	1.4	–
C[C@H]1C=CC2(CCC2)N2CN1C(=O)c1c(O)c(=O)c(C(=O)NCc3c(F)cc(F)cc3F)cn12	3	–
CO[C@@H]1C=C[C@H](C)N2CN1n1cc(C(=O)NCc3c(F)cc(F)cc3F)c(=O)c(O)c1C2=O	1.8	–
C[C@@H]1C[C@H](O)[C@H](O)CN2CN1n1cc(C(=O)NCc3ccc(F)cc3F)c(=O)c(O)c1C2=O	–	1.5

Continued, values first:

EC50 [nM]	EC50 (MT4, 2 h) [nM]	Structure (SMILES)
–	1.4	CC1=C[C@H](C)N2CN([C@@H]1C)n1cc(C(=O)NCc3ccc(F)cc3F)c(=O)c(O)c1C2=O
1.5	–	C[C@@H]1CC[C@H](C)N2CN1n1cc(C(=O)NCc3ccc(F)cc3F)c(=O)c(O)c1C2=O
